Experiments:
Format in all cases: cell-based
Set-up in all cases: expressed in transfected cells
[1] = target: T1, F508del-CFTR (Homo sapiens, UniProt P13569, DEL508-508); test: HS-YFP functional assay for F508del-CFTR correctors in CFBE41o- cells; details: CFBE41o- cells stably expressing F508del-CFTR and HS-YFP; 24 h incubation; stimulation with forskolin 20 µM plus VX-770 1 µM
Experimental: The ability of these compounds to correct the basic defects related to F508del mutant was evaluated on immortalized CFBE41o-bronchial epithelial cells stably expressing F508del-CFTR and the halide sensitive yellow fluorescent protein (HS-YFP).
The measurements of the rate of HS-YFP quenching caused by iodide influx allowed us to determine the activity of F508del-CFTR, after incubation with the compounds, as cited. Activity was then compared to that of cells treated with the corrector VX-809 (1 µM) or with vehicle alone (DMSO).
Within the novel third series of hybrids herein proposed, based on their potency and efficacy in terms of CFTR rescue, we selected six compounds and determined the dose–response relationships (Figure 6). To this aim, F508del-CFTR expressing CFBE41o-cells were treated for 24 h with our hybrids 9b, 9f, 9g, 9h, 9j, and 9y and then mutant CFTR activity was measured by using the YFP functional assay (see Materials and Methods section for details).
Immortalized bronchial epithelial CFBE41o-cells with stable co-expression of the halide-sensitive yellow fluorescent protein (HS-YFP) and of F508del-CFTR were cultured using MEM medium supplemented with 10% fetal calf serum, 100 U/mL penicillin, 2 mM L-glutamine, and […] streptomycin.
(§1) CFBE41o-cells co-expressing mutants CFTR and HS-YFP were plated (50,000 cells/well) on clear-bottom 96-well black microplates (Corning Life Sciences, Acton, MA) and grown at 37 °C in 5% CO2 for 24 h. For the corrector assay, CFBE41o-cells were treated for further 24 h with compounds as indicated. The following day, prior to the assay, the culture medium was removed and cells were stimulated for 30 min at 37 °C with 60 µL PBS (containing 137 mM NaCl, 2.7 mM KCl, 8.1 mM Na2HPO4, 1.5 mM KH2PO4, 1mM CaCl2, and 0.5 mM MgCl2) plus forskolin (20 µM) and VX-770 (1 µM).
(§2) Microplates containing CFBE41o-cells were then transferred to a plate reader (FluoStar Galaxy; BMG Labtech, Offenburg, Germany) equipped with excitation (HQ500/20X: 500 ± 10 nm) and emission (HQ535/30M: 535 ± 15 nm) filters for YFP (Chroma Technology, Brattleboro, VT, USA). During the assay fluorescence was measured continuously for 14 s with 2 s before and 12 s after injection of an iodide containing solution (165 µL of a modified PBS containing I^- instead of Cl^-; final I^- concentration in the well: 100 mM).
(§3) Fluorescence data were normalized for the initial value and fluorescence quenching rate following I^- influx, were determined by fitting the final 10 s of data for each well with an exponential function to extrapolate initial slope (dF/dt).
To evaluate the dose–response relationships, activity slopes obtained for each compound at the different concentrations were fitted with the Hill equation using the Igor software (WaveMetrics) to extrapolate EC50, maximal effect, and Hill coefficient.

[2] = target: T1, F508del-CFTR; test: Western blot analysis of CFTR expression pattern (C band/B band ratio); details: F508del-CFTR/HS-YFP CFBE41o- cells; 24 h; 50 nM and 1 µM; versus DMSO
Text: We then biochemically estimated the rescue of the trafficking defect by analyzing the electrophoretic mobility of mutant CFTR protein. In Western blots, CFTR protein can be detected as two bands B and C, of approximately 150 and 170 kDa, respectively. Band B corresponds to immature, partially glycosylated CFTR, while band C corresponds to the mature fully glycosylated CFTR. In cells expressing wild-type CFTR protein, the prevalent form is band C, while the main form in cells expressing F508del-CFTR is band B, in agreement with the severe trafficking defect caused by this mutation (Figure 8). To estimate the effect of our molecules on CFTR expression pattern, we treated F508del-CFTR/HS-YFP expressing CFBE41o-cells for 24 h with test compounds 9b, 9g, and 9j (50 nM and 1 µM) VX-809 as a positive control or DMSO as a vehicle alone.
The next day, cells were lysed and the obtained lysates were subjected to SDS-PAGE followed by Western blotting (Figure 8A). Western blot images were analyzed with ImageJ software. CFTR bands, analyzed as ROI, were quantified in each lane after normalization for GAPDH as a loading control. […]
Supernatant protein concentration was calculated using the BCA assay (Euroclone, Milan, Italy). For each sample, 10 μg of total proteins was resolved in 4–20% gradient Criterion TGX precast gels, transferred to nitrocellulose membranes (using a Trans-Blot Turbo system; Bio-Rad, Hercules, CA, USA), and analyzed by Western blotting. Proteins were detected using the antibodies described above and subsequently visualized by chemiluminescence using the SuperSignal West Femto Substrate (Thermo Fisher Scientific, Waltham, MA, USA). […] Images were analyzed with ImageJ software (NIH). Bands were analyzed as ROI, normalized against the GAPDH loading control.
Figure 8 Biochemical analysis of the F508del-CFTR expression pattern: (A). […] Quantification of the C band/B band ratio in experiments as in (A). […]

[3] = target: T1, F508del-CFTR; test: HS-YFP functional assay of corrector combinations with VX-445; details: CFBE41o- cells; 24 h; VX-445 3 µM; forskolin 20 µM plus VX-770 1 µM
Experimental: Now, to further characterize the activity of these compounds, we tested the novel derivates 9b, 9g, and 9j, along with VX-809 as a positive control, in combination with VX-445 (3 µM), in CFBE41o-cells stably expressing F508del-CFTR by using the YFP functional assay (Figure 7). To this aim, cells were treated for 24 h with test compounds at different concentrations, in combination with VX-445 (3 µM), and then assayed after maximal stimulation of F508del-CFTR in the presence of forskolin (20 µM) plus VX-770 (1 µM).
as §1, §2, §3
Figure 7 Functional analysis of corrector combinations. F508del-CFTR activity was determined in CFBE41o-cells with stable expression of the HS-YFP. Cells were treated for 24 h with VX-445 (3 µM) alone or in combination with 9b, or 9g, or 9j, or VX-809 at different concentrations (from 102 nM to 10 µM). The YFP-based assay was performed after stimulation of CFTR activity with forskolin (20 µM) plus VX-770 (1 µM).

T1 sequence (P13569 with tags, fused parts or gaps DEL508-508): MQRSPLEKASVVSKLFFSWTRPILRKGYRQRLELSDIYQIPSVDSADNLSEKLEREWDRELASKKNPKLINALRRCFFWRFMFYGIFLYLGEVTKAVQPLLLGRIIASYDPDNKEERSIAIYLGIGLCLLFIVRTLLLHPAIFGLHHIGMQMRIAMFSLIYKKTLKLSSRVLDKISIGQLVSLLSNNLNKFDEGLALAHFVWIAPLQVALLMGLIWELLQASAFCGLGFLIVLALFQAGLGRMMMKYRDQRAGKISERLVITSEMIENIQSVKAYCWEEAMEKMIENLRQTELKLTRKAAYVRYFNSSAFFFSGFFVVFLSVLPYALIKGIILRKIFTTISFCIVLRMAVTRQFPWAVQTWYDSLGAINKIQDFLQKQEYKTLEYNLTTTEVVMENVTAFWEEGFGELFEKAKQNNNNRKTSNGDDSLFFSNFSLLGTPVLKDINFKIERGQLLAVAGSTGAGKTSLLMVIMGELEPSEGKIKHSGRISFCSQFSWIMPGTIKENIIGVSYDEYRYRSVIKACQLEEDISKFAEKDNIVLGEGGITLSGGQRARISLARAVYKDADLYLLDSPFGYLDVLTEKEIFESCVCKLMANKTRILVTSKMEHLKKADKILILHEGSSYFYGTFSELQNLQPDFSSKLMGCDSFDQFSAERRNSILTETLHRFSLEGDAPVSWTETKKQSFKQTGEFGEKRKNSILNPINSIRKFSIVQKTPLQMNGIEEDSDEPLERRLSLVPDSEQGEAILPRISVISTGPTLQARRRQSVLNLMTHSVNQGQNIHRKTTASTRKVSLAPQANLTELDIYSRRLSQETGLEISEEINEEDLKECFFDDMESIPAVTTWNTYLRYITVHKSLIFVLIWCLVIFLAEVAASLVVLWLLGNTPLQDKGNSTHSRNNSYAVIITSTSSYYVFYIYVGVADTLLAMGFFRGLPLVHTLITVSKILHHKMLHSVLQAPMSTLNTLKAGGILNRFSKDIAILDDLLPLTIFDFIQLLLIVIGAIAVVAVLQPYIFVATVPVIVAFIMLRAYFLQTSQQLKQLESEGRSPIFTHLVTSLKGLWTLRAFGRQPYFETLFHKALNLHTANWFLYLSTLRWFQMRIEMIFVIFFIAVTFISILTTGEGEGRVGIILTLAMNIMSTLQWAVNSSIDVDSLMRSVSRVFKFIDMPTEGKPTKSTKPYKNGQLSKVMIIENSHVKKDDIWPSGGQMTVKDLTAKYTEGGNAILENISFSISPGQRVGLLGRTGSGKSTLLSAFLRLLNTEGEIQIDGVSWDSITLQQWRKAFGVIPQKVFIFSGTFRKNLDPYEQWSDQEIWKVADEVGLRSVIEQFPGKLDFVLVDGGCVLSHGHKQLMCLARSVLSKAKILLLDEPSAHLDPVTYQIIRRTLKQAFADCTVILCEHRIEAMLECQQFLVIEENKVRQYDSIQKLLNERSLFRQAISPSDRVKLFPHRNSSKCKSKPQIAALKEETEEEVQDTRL

Structure (SMILES): COc1ccc(C(=O)c2sc(NC(=O)C3(c4ccc5c(c4)OCO5)CC3)nc2-c2ccc(OC)cc2)cc1 [Compound 9b]
- EC50 [1]: 64 nM
- C band/B band ratio [2]: significant enhancement
- effect of combination with VX-445 on F508del-CFTR activity [3]: clear additive effect

Reference: PMC8955485, “Journey on VX-809-Based Hybrid Derivatives towards Drug-like F508del-CFTR Correctors: From Molecular Modeling to Chemical Synthesis and Biological Assays” (Pharmaceuticals, 2022)
